From paper PMC12990037, “Discovery of Two Structurally Distinct Classes of Inhibitors Targeting the Nuclease MUS81 and Enhancing Efficacy of Chemotherapy in Cancer Cells” (Journal of Medicinal Chemistry, 2026)

Tests used:
[1] = target: T1, MUS81–EME1 (Homo sapiens, UniProt Q96NY9); test: Gel-based in vitro nuclease assay: cleavage of 3′flap DNA by purified MUS81–EME1; type: biochemical
T1 construct: The MUS81–EME1 full-length expression plasmid was obtained from Stephen C; West; made in house; host or cells: Escherichia coli
T1 sequence (Q96NY9 1-551): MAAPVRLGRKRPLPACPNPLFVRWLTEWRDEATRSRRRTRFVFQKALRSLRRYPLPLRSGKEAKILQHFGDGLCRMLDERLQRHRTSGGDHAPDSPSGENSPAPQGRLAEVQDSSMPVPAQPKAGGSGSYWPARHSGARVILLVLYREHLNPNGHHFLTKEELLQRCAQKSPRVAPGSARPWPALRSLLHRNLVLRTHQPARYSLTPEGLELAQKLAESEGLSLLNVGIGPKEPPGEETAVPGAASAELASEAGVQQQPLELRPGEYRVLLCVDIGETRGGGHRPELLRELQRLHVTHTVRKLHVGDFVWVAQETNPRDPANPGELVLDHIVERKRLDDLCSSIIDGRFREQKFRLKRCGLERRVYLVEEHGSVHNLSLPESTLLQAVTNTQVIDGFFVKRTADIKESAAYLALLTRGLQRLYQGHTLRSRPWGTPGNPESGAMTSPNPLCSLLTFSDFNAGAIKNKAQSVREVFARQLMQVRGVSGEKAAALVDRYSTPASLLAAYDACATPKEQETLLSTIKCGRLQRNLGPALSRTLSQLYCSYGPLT
T1 sequence (Q96AY2 1-570 partner): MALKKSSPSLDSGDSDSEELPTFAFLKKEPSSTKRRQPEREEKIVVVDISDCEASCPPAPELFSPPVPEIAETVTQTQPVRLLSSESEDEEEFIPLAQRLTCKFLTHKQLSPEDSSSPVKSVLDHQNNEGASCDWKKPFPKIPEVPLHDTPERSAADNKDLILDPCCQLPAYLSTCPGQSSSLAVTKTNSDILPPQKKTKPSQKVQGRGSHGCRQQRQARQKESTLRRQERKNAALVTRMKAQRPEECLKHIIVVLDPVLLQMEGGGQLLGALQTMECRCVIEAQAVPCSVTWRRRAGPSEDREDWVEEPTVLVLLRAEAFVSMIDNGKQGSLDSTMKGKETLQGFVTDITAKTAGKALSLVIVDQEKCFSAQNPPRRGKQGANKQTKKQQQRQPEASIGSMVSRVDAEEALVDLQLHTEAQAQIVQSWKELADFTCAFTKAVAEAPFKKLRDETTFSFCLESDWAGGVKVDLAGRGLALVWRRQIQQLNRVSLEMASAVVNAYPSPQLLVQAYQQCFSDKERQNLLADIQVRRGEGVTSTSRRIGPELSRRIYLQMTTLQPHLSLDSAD
Experimental: To identify the small-molecule inhibitors of MUS81, we used two complementary screening approaches. The first involved a structure-based virtual screening, where over 140,000 small molecules were docked into the active site of MUS81 using AutoDock Vina software. […] The cleavage by purified MUS81-EME1 was monitored by gel electrophoresis, and the compound activity was quantified by measuring the reduction in cleavage product intensity.
Nuclease assays were performed in reaction buffer containing 50 mM Tris pH 7.5, 10 mM MgCl2, 1 mM DTT, 85 mM KCl, and 20% glycerol. Purified MUS81–EME1 (1 nM) was preincubated in 9 μL reaction with indicated concentrations of inhibitors for 15 min at room temperature, followed by the addition of 3 nM of a 3′flap DNA substrate (listed in Supplementary Table 9) and a further incubation for 15 min at 37 °C. The final concentration of DMSO in the reactions was 2%. The reactions were stopped by the addition of 0.1% SDS and 500 μg/mL of proteinase K, followed by incubation for 5 min at 37 °C. […] The fluorescent DNA was visualized using a FLA-9000 (Fujifilm). Bands corresponding to cleaved substrates were selected for quantification using the MultiGauge 3.2 software. Final data represent integrated density of these bands with background subtraction. Fitting of the data with sigmoid curves was performed in OriginPro (OriginLab).

[2] = test system: U2OS DR-GFP cells; test: I-SceI-based HR repair reporter assay; type: cell-based; conditions: Homo sapiens, 72 h
Experimental: 3 MUS81 inhibitors suppress HR and BIR. (A) I-SceI-based BIR repair efficiency was measured in U2OS BIR-GFP cells treated with DMSO, two different siRNAs targeting MUS81, or the indicated concentrations of MU262 and MU876, and their control analogues for 72 h. The percentage of repair was normalized to the DMSO-treated control (D). n = 3. Error bars represent standard deviation (s.d.); ****p <0.0001 (unpaired, two-tailed t-test). […] (C,D) I-SceI-based HR (C) and NHEJ (D) repair efficiency was measured using U2OS DR-GFP and EJ5-GFP cells, respectively, following treatment with DMSO, MU262,MU876, or their control analogues for 72 h. The percentage of repair was normalized to the DMSO-treated control. n = 3. Error bars represent s.d.; *p <0.05, **p <0.01, ****p <0.0001 (unpaired, two-tailed t-test).
Reporter DR-GFP and […] U2OS cells along with BIR-GFP cells were transfected with 2.5 μg of I-SceI-expressing pCAGGS vector and subsequently treated with MUS81 inhibitors at the indicated concentrations. After transfection (72 h), cells were trypsinized and resuspended in 3% BSA in PBS. GFP fluorescence detection was carried out using a BD FACSVerse flow cytometer, and the data were analyzed with FlowJo software (BD Life Sciences). Data presented in the graph were normalized to the DMSO-treated sample.

[3] = test system: major cytochrome P450 isoforms; test: Cytochrome P450 inhibition; type: in vitro ADME
[4] = test system: CAL51 WT cells; test: Long-term cell survival assay (retreatment twice a week); type: cell-based; conditions: 1–3 μM, treated twice a week for almost 3 weeks
Experimental: To evaluate the long-term effects of the inhibitors on the cellular viability, we treated cells twice a week for almost 3 weeks with low doses of MU262 and MU876.
CAL51 WT cells were treated with DMSO, MU262 = 18, MU876 = 32, nontargeting siRNA, or siRNA targeting MUS81. Cells were trypsinized, counted, and replated twice a week and retreated with inhibitors or siRNA with every passage. The cell number was plotted at each time point. Data were plotted in Graphpad Prism (GraphPad Software) and a 2-way ANOVA test was used to assess significance.

[5] = target: T2, MUS81–EME1 binding to 3′ flap DNA substrate (Homo sapiens, UniProt Q96NY9); test: Electrophoretic mobility shift assay (EMSA); conditions: MUS81–EME1 160 nM, no MgCl2
T2 construct: The MUS81–EME1 full-length expression plasmid was obtained from Stephen C; West; made in house; host or cells: Escherichia coli
T2 sequence (Q96NY9 1-551): T1 sequence (Q96NY9 1-551)
T2 sequence (Q96AY2 1-570 partner): T1 sequence (Q96AY2 1-570 partner)
Experimental: (A,B) Purified MUS81–EME1 (160 nM) was incubated with increasing concentrations of MU262, MU876, or their respective control analogues, followed by the addition of 3 nM fluorescently labeled 3′ flap DNA substrate. MgCl2 was omitted from the reaction buffer to prevent substrate cleavage. The reaction products were resolved on a native PAGE gel. The lower band represents a free DNA substrate, while the upper smear corresponds to the MUS81–DNA complex. n = 3.
Purified MUS81–EME1 (160 nM) was incubated in a modified assay buffer without MgCl2 (50 mM Tris–HCl pH 7.4, 150 mM NaCl, and 0.05% Tween-20) with 15 nM of a 3′flap DNA substrate (listed in Supplementary Table 5) in the absence or presence of selected inhibitors at RT for 10 min, followed by an incubation at 25 °C for 10 min. The reaction was stopped on ice and products were resolved using native PAGE (7.5% acrylamide gel in 0.5% TBE) at 4 °C for 50 min (6.5 V/cm). Gel images were captured using a FLA-9000 (Fujifilm) and Typhoon (Amersham) scanners and quantified with Multi Gauge V3.2 software (Fujifilm).

Compound | IC50 ([1]; Table 1, in vitro) [µM] | IC50 ([1]; text and figures, MUS81–EME1 1 nM, 3 nM 3′ flap DNA) [µM] | IC50 [2] [µM] | inhibition of major cytochrome P450 isoforms [3] | long-term viability [4] | effect on MUS81–EME1 binding to 3′ flap DNA (EMSA) [5]
CCc1nn2c(O)c(-c3nc4ccccc4[nH]3)nnc2c1-c1ccc(F)cc1 [Compound 18, 3-(1H-Benzo[d]imidazole-2-yl)-7-ethyl-8-(4-fluorophenyl)pyrazolo[5,1-c][1,2,4]triazin-4-ol] | < 1 | 0.87 | 0.5 to 1 | do not significantly inhibit major cytochrome P450 isoforms | significant reduction in viability | neither MU262 nor its inactive analogue MU1066 disrupted the MUS81–DNA interaction
Cc1cc(=O)[nH]c(-n2nc(-c3ccccc3)cc2NC(=O)c2cc(-c3ccccc3)on2)n1 [Compound 32, N-(1-(4-Methyl-6-oxo-1,6-dihydropyrimidin-2-yl)-3-phenyl-1H-pyrazol-5-yl)-5-phenylisoxazole-3-carboxamide] | – | – | 0.5 to 1 | do not significantly inhibit major cytochrome P450 isoforms | – | –
